Reference: the NIST ThermoML archive (doi:10.1021/je8002207)
± gives the expanded uncertainty stated by the source.

Tests used:
[1] = Crystal; DTA
[2] = Molar enthalpy of transition or fusion; details: Crystal; DSC

| Structure (SMILES) | Normal melting temperature [1] [°C] | Molar enthalpy of transition or fusion [2] [kcal/mol] |
| --- | --- | --- |
| CN[C@@]1(c2ccccc2Cl)CCCCC1=O [(R)-ketamine] | 121.0 ± 0.5 | 6.86 ± 0.198 |
| CN[C@]1(c2ccccc2Cl)CCCCC1=O [(S)-ketamine] | 121.0 ± 0.5 | 6.86 ± 0.198 |
